Patent US20040126817A1, “Gap junction permeability assay” (priority 2001, published 2004)
Structures can show the parent of a compound that is named as a salt.

Tests used:
[1] = test system: GJIC in NRK (Normal Rat Kidney) cells, mainly Cx43; assay: Gap junction coupling assay, NRK sender cells (D1-receptor) plus NRK receiver cells (CRE-luciferase), endogenous connexins; type: cell-based; conditions: for Luciferase response, 50 μM AGA / Luciferase response, 100 μM AGA / Luciferase response, 150 μM AGA / Luciferase response, Vehicle: NRK sender:receiver 1:1, agonist 10 μM, 6½ hours; for Luciferase response, 50 μM AGA: 50 μM AGA added 30 min before; for Luciferase response, 50 μM AGA / Luciferase response, 100 μM AGA / Luciferase response, 150 μM AGA / Luciferase response, Vehicle / Luciferase responses: control = 100%; for Luciferase response, 100 μM AGA: 100 μM AGA added 30 min before; for Luciferase response, 150 μM AGA: 150 μM AGA added 30 min before; for Luciferase response, Vehicle: no AGA (DMSO); for Luciferase responses: NRK sender:receiver 1:1, 10 μM forskolin or 1 μM cAMP, 6 hours
[2] = test system: NRK cells; assay: CRE-luciferase response in NRK receiver cells only (check for endogenous D1-receptor); type: cell-based, rat; conditions: for Luciferase responses: 10 μM, 6½ hours, control = 100%
Procedure: These experiments are performed to investigate whether the NRK cells express the D1-receptor endogenously. If NRK cells express D1 receptor endogenously, the receiver cells would be able to generate cAMP and produce a chemiluminescent signal independently of GJIC and the endogenous messenger generated by the sender cell. So only receiver cells are used for this experiment.
Cells are transfected with 5 μg CRE-luciferase DNA and 500 ng pRL-SV40 DNA per 6 cm dish. Each well of a 24-well plate received 250 μL cell suspension and 250 μL media, or approx. 25 000 cells. Cells are stimulated with 10 μM forskolin or apomorphine during 6½ hours before harvesting.

[3] = test system: Cx32-mediated GJIC in HeLa cells; assay: Gap junction coupling assay, HeLa sender and receiver cells with or without transfected Cx32; type: cell-based, human; conditions: 10 μM, duplicates; for Luciferase response, Cells transfected with Cx32: 4.8 μg Cx32 DNA; for Luciferase response, Cells transfected with Cx32 / Luciferase response, Cells not transfected with Cx32: 1 ml sender + 0.2 ml receiver cells, percentage of control; for Luciferase response, Single dose Cx32: sender cells 2.4 μg Cx32 DNA; for Luciferase response, Single dose Cx32 / Luciferase response, Double dose Cx32: control = 100%; for Luciferase response, Double dose Cx32: sender cells 4.8 μg Cx32 DNA
[4] = test system: HeLa cells; assay: CRE-luciferase response in HeLa receiver cells only; type: cell-based, human; conditions: n=2, control = 100%
Procedure: This is conformed by an experiment in which apomorphine is added to wells containing only receiver cells. As predicted, there is no elicited response. Luciferase activity values are 100.0±6.5% (control, n=2) and 75.9±3.0% (apomorphine, n=2).

[5] = test system: GJIC in CHO (Chinese Hamster Ovary) cells; assay: Gap junction coupling assay, CHO sender and receiver cells with or without exogenous Cx32; type: cell-based; conditions: 10 μM, 8 hours, control = 100%, duplicates; for Luciferase response, With exogenous Cx32: CHO transfected with Cx32 DNA; for Luciferase response, No exogenous Cx32: CHO
[6] = IV injection of glucagon in humans; cited from earlier work

Molecule | Luciferase response, 50 μM AGA [1] [%] | Luciferase response, 100 μM AGA [1] [%] | Luciferase response, 150 μM AGA [1] [%] | Luciferase response, Vehicle [1] [%] | Luciferase responses [2] | Luciferase response, Cells transfected with Cx32 [3] [%] | Luciferase response, Cells not transfected with Cx32 [3] [%] | Luciferase response, Single dose Cx32 [3] [%] | Luciferase response, Double dose Cx32 [3] [%] | Luciferase response, With exogenous Cx32 [5] [%] | Luciferase response, No exogenous Cx32 [5] [%] | Luciferase responses [1] [%] | other results
CC1(C)[C@@H](O)CC[C@]2(C)[C@H]3C(=O)C=C4[C@H]5C[C@@](C)(C(=O)O)CC[C@]5(C)CC[C@@]4(C)[C@]3(C)CC[C@@H]12 [18-alpha-glycyrrhetinic acid] |  |  |  |  |  |  |  |  |  |  |  |  | effect on the apomorphine-induced chemiluminescent signal (GJIC) ([1]; NRK, 50, 100, 150 μM AGA, 10 μM apomorphine): able to decrease this effect in a concentration-dependent manner; effect on the response to forskolin (independent of GJIC) ([1]; NRK, 50, 100, 150 μM AGA, 10 μM forskolin): unaffected
CN1CCc2cccc3c2[C@H]1Cc1ccc(O)c(O)c1-3 [Apomorphine, Apomorphine hydrochloride] | 156.0 ± 8.9 | 137.6 ± 9.3 | 109.7 ± 8.0 | 297.5 | 124.8%±6.8 | 217.5 ± 3.0 | 109.5 ± 1.1 | 121.1 ± 7.2 | 176.5 ± 8.1 | 302.2 ± 2.2 | 222.6 ± 22.6 |  | increase over background of the chemiluminescent signal ([1]; NRK sender:receiver 1:1, 10 μM apomorphine): three-fold increase; Receiver Cell Response ([1]; NRK sender:receiver 5:1, 6 hours, buffer = 100%, mean±SEM of 3): 324 ± 14.4%; Luciferase activity values [4]: 75.9±3.0%
C=C[C@@]1(C)CC(=O)[C@]2(O)[C@@]3(C)[C@@H](O)CCC(C)(C)[C@@H]3[C@H](O)[C@H](OC(C)=O)[C@@]2(C)O1 [Forskolin, forskolin] | 732.6 ± 52.2 | 669.9 ± 18.3 | 685.8 ± 32.0 | 581.3 | 876.6%±64.1 | 254.6 ± 113.3 | 272.5 ± 40.9 | 139.0 ± 14.3 | 195.1 ± 18.2 | 356.5 ± 21.8 | 701.9 ± 0.0 | 669.3±56.8 | increase in chemiluminescent signal ([2]; 10 μM forskolin): more than 8 fold
Nc1ncnc2c1ncn2[C@@H]1O[C@@H]2COP(=O)(O)O[C@H]2[C@H]1O [cAMP, cyclic adenosine monophosphate] |  |  |  |  |  |  |  |  |  |  |  | 87.5±5.8 | 
glucagon |  |  |  |  |  |  |  |  |  |  |  |  | plasma levels of cAMP [6]: up to 200 nM
